Where a SMILES comes first, the peptide text is derived from it. [ ]: non-standard residue; d: D form. NMeF = CN[C@@H](Cc1ccccc1)C(=O)O; NMeL = CN[C@@H](CC(C)C)C(=O)O; dNMeL = CN[C@H](CC(C)C)C(=O)O; dNMeV = CN[C@@H](C(=O)O)C(C)C; NMeV = CN[C@H](C(=O)O)C(C)C; NMeA = CN[C@@H](C)C(=O)O; dNMeA = CN[C@H](C)C(=O)O

Data set [1] can be described thus: in vitro. The note with it: PAMPA, PAMPA_Papp_Avg.
The conditions of data set [2]: PAMPA.

Take `CC(C)C[C@@H]1C(=O)N2CCC[C@@H]2C(=O)N(C)[C@@H](C(C)C)C(=O)N[C@@H](C(C)C)C(=O)N2CCC[C@H]2C(=O)N2CCC[C@@H]2C(=O)N[C@@H](C)C(=O)N[C@H](C(C)C)C(=O)N(C)[C@@H](CC(C)C)C(=O)N[C@@H](C)C(=O)N1C` [Design D10.6, PRO DPRO ALA DVAL *LEU ALA *DLEU DPRO *VAL VAL] (cyclo(A[dNMeL][dP][NMeV]VP[dP]A[dV][NMeL])): the apparent permeability (Papp) – broadly, the rate of passage across a membrane or cell layer, normalised by area and donor concentration – in data set [1] amounted to 1.22 ×10⁻⁶ cm/s. Further, in data set [2], the PAMPA_R1 was 1.62E-06 and the PAMPA_R3 is 7.67E-07.

With `CC[C@H](C)[C@@H]1NC(=O)[C@@H](C(C)C)NC(=O)[C@H](CC(C)C)N(C)C(=O)[C@H]2CCCN2C(=O)[C@H]2CCCN2C(=O)[C@H](C(C)C)NC(=O)[C@@H](CC(C)C)NC(=O)[C@H]2CCCN2C1=O` [Design D8.16, DPRO DLEU VAL DPRO DPRO *LEU DVAL ILE] (cyclo(I[dP][dL]V[dP][dP][NMeL][dV])), the Papp in data set [1] is 2.16 ×10⁻⁶ cm/s. In data set [2], the PAMPA_R1 came out at 2.86E-06 and the PAMPA_R3 is recorded as 1.69E-06.

As to `CC(C)C[C@@H]1NC(=O)[C@@H](C)NC(=O)[C@H]2CCCN2C(=O)[C@@H]2CCCN2C(=O)[C@@H](C(C)C)NC(=O)[C@@H](CC(C)C)N(C)C(=O)[C@H]2CCCN2C(=O)[C@H]2CCCN2C(=O)[C@@H](C)N(C)C(=O)[C@H](CC(C)C)N(C)C(=O)[C@@H](Cc2ccccc2)NC1=O` [Design D11.16, LEU DPHE *LEU *DALA DPRO DPRO *DLEU DVAL PRO DPRO DALA] (cyclo(L[dF][NMeL][dNMeA][dP][dP][dNMeL][dV]P[dP][dA])), the Papp in data set [1] turned out to be 0.43 ×10⁻⁶ cm/s. In data set [2], this compound gave a PAMPA_R1 of 3.70E-07 and a PAMPA_R3 of 4.55E-07.

The compound `CC[C@H](C)[C@@H]1NC(=O)[C@H](Cc2ccccc2)NC(=O)[C@H]2CCCN2C(=O)[C@H]([C@@H](C)CC)NC(=O)[C@H](C(C)C)NC(=O)[C@@H](C)NC(=O)[C@H]2CCCN2C1=O` (single isomer, unassigned) [Design D7.8.p1, VAL ILE DPRO PHE ILE DPRO DALA] had a Papp in data set [1] of 4.87 ×10⁻⁶ cm/s. In data set [2], this compound yielded a PAMPA_R1 of 4.5e-06 cm/s and a PAMPA_R3 of 6.04e-06 cm/s.

Consider `CC(C)[C@@H]1C(=O)N[C@@H](Cc2ccccc2)C(=O)N2CCC[C@H]2C(=O)N(C)[C@H](Cc2ccccc2)C(=O)N[C@H](C)C(=O)N2CCC[C@H]2C(=O)N1C` (single isomer, unassigned) [Design D6.8.p1, *DPHE DALA PRO *DVAL PHE PRO], for which, in data set [1], the apparent permeability coefficient (Papp) amounted to 3.47 ×10⁻⁶ cm/s. Moreover, in data set [2], the PAMPA_R1 turned out to be 4.07e-06 cm/s and the PAMPA_R3 was 3.58e-06 cm/s.

As for `CC[C@@H](C)[C@H]1NC(=O)[C@@H](CC(C)C)NC(=O)[C@@H]2CCCN2C(=O)[C@H]2CCCN2C(=O)[C@@H](C(C)C)NC(=O)[C@H](C)NC(=O)[C@@H]2CCCN2C(=O)[C@@H]([C@H](C)CC)NC(=O)[C@@H](C)N(C)C1=O` [Design D9.23, DILE *DALA DILE PRO ALA DVAL DPRO PRO DLEU] (cyclo([dL][dI][dNMeA][dI]PA[dV][dP]P)), in data set [1], the apparent permeability (Papp) is 0.141 ×10⁻⁶ cm/s. In data set [2], this compound returned a PAMPA_R1 of 1.37E-07 and a PAMPA_R3 of 1.50E-07.

Take `CC(C)C[C@@H]1NC(=O)[C@@H](CC(C)C)NC(=O)[C@H]2CCCN2C(=O)[C@@H]2CCCN2C(=O)[C@@H](CC(C)C)NC(=O)[C@@H](CC(C)C)N(C)C(=O)[C@@H]2CCCN2C1=O` [Design D7.5, LEU PRO *DLEU DLEU PRO DPRO DLEU] (cyclo(LP[dNMeL][dL]P[dP][dL])): in data set [1], the Papp worked out at 6.64 ×10⁻⁶ cm/s. Also, in data set [2], the PAMPA_R1 was 6.72e-06 cm/s.

In data set [1], `CC[C@H](C)[C@@H]1NC(=O)[C@H](Cc2ccccc2)N(C)C(=O)[C@H]2CCCN2C(=O)[C@H]([C@@H](C)CC)NC(=O)[C@H](C(C)C)NC(=O)[C@@H](C)NC(=O)[C@H]2CCCN2C1=O` [Design D7.9, VAL ILE DPRO *PHE ILE DPRO DALA] (cyclo(I[dP][NMeF]I[dP][dA]V)) gave a Papp of 7.09 ×10⁻⁶ cm/s. Further, in data set [2], the PAMPA_R1 was found to be 6.71e-06 cm/s and the PAMPA_R3 stood at 6.53e-06 cm/s.

In data set [1], `CC(C)C[C@@H]1NC(=O)[C@@H]2CCCN2C(=O)[C@H]2CCCN2C(=O)[C@@H](C)N(C)C(=O)[C@@H](CC(C)C)N(C)C(=O)[C@H](C(C)C)NC(=O)[C@@H](C)N(C)C(=O)[C@H]2CCCN2C(=O)[C@@H]2CCCN2C1=O` [Design D9.22, DPRO *DALA VAL *DLEU *DALA DPRO PRO LEU PRO] (cyclo(LP[dP][dNMeA]V[dNMeL][dNMeA][dP]P)) returned an apparent permeability coefficient (Papp) of 0.189 ×10⁻⁶ cm/s. For the same compound, in data set [2], the PAMPA_R1 was 1.87E-07 and the PAMPA_R3 came out at 1.82E-07.

As for `CC[C@@H](C)[C@H]1NC(=O)[C@H](C)NC(=O)[C@@H](CC(C)C)N(C)C(=O)[C@H](CC(C)C)N(C)C(=O)[C@H](C(C)C)NC(=O)[C@@H]2CCCN2C(=O)[C@@H](CC(C)C)N(C)C(=O)[C@@H](C)N(C)C(=O)[C@@H](Cc2ccccc2)NC(=O)[C@@H]2CCCN2C(=O)[C@H]2CCCN2C1=O` [Design D11.6, VAL *LEU *DLEU ALA DILE DPRO PRO DPHE *DALA *DLEU PRO] (cyclo([dF][dNMeA][dNMeL]PV[NMeL][dNMeL]A[dI][dP]P)), in data set [1], the Papp amounted to 0.949 ×10⁻⁶ cm/s. Moreover, in data set [2], the PAMPA_R1 was found to be 1.24E-06 and the PAMPA_R3 turned out to be 7.58E-07.

In data set [1], `CC[C@H](C)[C@@H]1NC(=O)[C@H](CC(C)C)N(C)C(=O)[C@H]2CCCN2C(=O)[C@@H](CC(C)C)NC(=O)[C@H](CC(C)C)NC(=O)[C@@H](CC(C)C)N(C)C(=O)[C@@H]2CCCN2C1=O` [Design D7.2, DLEU DPRO *LEU ILE PRO *DLEU LEU] (cyclo(IP[dNMeL]L[dL][dP][NMeL])) yielded an apparent permeability (Papp) of 11.6 ×10⁻⁶ cm/s. This compound also came in with a PAMPA_R1 in data set [2] of 1.48e-05 cm/s.

On to `CC(C)C[C@@H]1C(=O)N[C@H](CC(C)C)C(=O)N2CCC[C@@H]2C(=O)N2CCC[C@H]2C(=O)N(C)[C@H](CC(C)C)C(=O)N[C@H](CC(C)C)C(=O)N2CCC[C@@H]2C(=O)N2CCC[C@H]2C(=O)N1C` [Design D8.4, DPRO PRO *DLEU DLEU DPRO PRO *DLEU DLEU] (cyclo([dNMeL][dL][dP]P[dNMeL][dL][dP]P)), for which the apparent permeability (Papp) in data set [1] is 0.136 ×10⁻⁶ cm/s. In data set [2], this compound registered a PAMPA_R1 of 1.49E-07 and a PAMPA_R3 of 1.12E-07.

`CC[C@@H](C)[C@H]1NC(=O)[C@@H]2CCCN2C(=O)[C@@H](CC(C)C)N(C)C(=O)[C@@H](C(C)C)NC(=O)[C@@H]2CCCN2C(=O)[C@@H](CC(C)C)N(C)C(=O)[C@H](C)N(C)C(=O)[C@@H](C)NC1=O` [Design D8.18, DILE DALA *ALA *DLEU PRO DVAL *DLEU PRO] (cyclo([NMeA][dNMeL]P[dV][dNMeL]P[dI][dA])) returned an apparent permeability coefficient (Papp) in data set [1] of 1.04 ×10⁻⁶ cm/s. Further, in data set [2], the PAMPA_R1 is 1.31E-06 and the PAMPA_R3 stood at 9.35E-07.

As for `CC(C)[C@H]1NC(=O)[C@@H]2CCCN2C(=O)[C@@H](C)NC(=O)[C@@H](Cc2ccccc2)NC(=O)[C@@H]2CCCN2C(=O)[C@H](Cc2ccccc2)NC1=O` [Design D6.7, DPHE DALA PRO DVAL PHE PRO] (cyclo(FP[dF][dA]P[dV])), the Papp in data set [1] was determined as 0.424 ×10⁻⁶ cm/s. In data set [2], the PAMPA_R1 came out at 6.27e-07 cm/s and the PAMPA_R3 is 3.67e-07 cm/s.

Turning to `CC(C)C[C@H]1C(=O)N2CCC[C@@H]2C(=O)N[C@@H](Cc2ccccc2)C(=O)N2CCC[C@H]2C(=O)N(C)[C@H](C(C)C)C(=O)N[C@H](Cc2ccccc2)C(=O)N1C` [Design D6.10, *DVAL DPHE *LEU DPRO PHE PRO] (cyclo(FP[dNMeV][dF][NMeL][dP])), the apparent permeability (Papp) in data set [1] turned out to be 11.6 ×10⁻⁶ cm/s. In data set [2], the PAMPA_R1 is 1.23e-05 cm/s and the PAMPA_R3 was determined as 1.13e-05 cm/s.

In data set [1], `CC[C@H](C)[C@@H]1NC(=O)[C@@H](C)NC(=O)[C@@H]2CCCN2C(=O)[C@H]2CCCN2C(=O)[C@@H]2CCCN2C(=O)[C@@H](C)NC(=O)[C@@H](Cc2ccccc2)NC(=O)[C@@H](CC(C)C)N(C)C(=O)[C@@H](CC(C)C)N(C)C1=O` [Design D9.15, PRO DPRO PRO DALA ILE *DLEU *DLEU DPHE DALA] (cyclo([dA]I[dNMeL][dNMeL][dF][dA]P[dP]P)) came in with an apparent permeability (Papp) of 0.85 ×10⁻⁶ cm/s. In data set [2], this compound had a PAMPA_R1 of 9.95E-07 and a PAMPA_R3 of 6.20E-07.

`CC(C)C[C@@H]1C(=O)N(C)[C@H](C)C(=O)N(C)[C@@H](C(C)C)C(=O)N2CCC[C@@H]2C(=O)N[C@H](C)C(=O)N[C@@H](Cc2ccccc2)C(=O)N2CCC[C@@H]2C(=O)N2CCC[C@H]2C(=O)N[C@H](C(C)C)C(=O)N[C@@H](C(C)C)C(=O)N1C` [Design D10.29, PHE DPRO PRO DVAL VAL *DLEU *DALA *VAL DPRO DALA] (cyclo([dV]V[dNMeL][dNMeA][NMeV][dP][dA]F[dP]P)): in data set [1], the apparent permeability (Papp) turned out to be 0.441 ×10⁻⁶ cm/s. In data set [2], the PAMPA_R1 stood at 3.87E-07 and the PAMPA_R3 is 4.67E-07.

`CC[C@H](C)[C@@H]1NC(=O)[C@H]2CCCN2C(=O)[C@H](CC(C)C)N(C)C(=O)[C@H](CC(C)C)NC(=O)[C@H](C(C)C)NC(=O)[C@@H]2CCCN2C(=O)[C@H](CC(C)C)N(C)C(=O)[C@H](C(C)C)NC(=O)[C@@H](C(C)C)NC1=O` [Design D9.39, DVAL VAL *LEU PRO VAL LEU *LEU DPRO ILE] (cyclo(I[dV]V[NMeL]PVL[NMeL][dP])): in data set [1], the Papp was 0.466 ×10⁻⁶ cm/s. In data set [2], the PAMPA_R1 turned out to be 5.51E-07 and the PAMPA_R3 worked out at 2.78E-07.

Turning to `CC[C@@H](C)[C@H]1NC(=O)[C@@H](CC(C)C)NC(=O)[C@@H](CC(C)C)NC(=O)[C@H]2CCCN2C(=O)[C@H](CC(C)C)N(C)C(=O)[C@@H](C)N(C)C(=O)[C@@H]2CCCN2C(=O)[C@@H]([C@H](C)CC)NC(=O)[C@@H](C(C)C)NC(=O)[C@@H]2CCCN2C1=O` [Design D10.46, PRO DVAL DILE PRO *DALA *LEU DPRO DLEU DLEU DILE] (cyclo([NMeL][dP][dL][dL][dI]P[dV][dI]P[dNMeA])), the Papp in data set [1] is 0.684 ×10⁻⁶ cm/s. In data set [2], this compound had a PAMPA_R1 of 8.07E-07 and a PAMPA_R3 of 6.41E-07.

The compound `CC(C)C[C@H]1NC(=O)[C@H]2CCCN2C(=O)[C@@H]2CCCN2C(=O)[C@@H](Cc2ccccc2)NC(=O)[C@@H](C(C)C)NC(=O)[C@H](CC(C)C)N(C)C(=O)[C@@H](Cc2ccccc2)NC1=O` (single isomer, unassigned) [Design D7.7.p1, PRO DPRO DLEU DPHE *LEU DVAL DPHE] came in with an apparent permeability (Papp) in data set [1] of 8.43 ×10⁻⁶ cm/s. Besides, in data set [2], the PAMPA_R1 was 8.16e-06 cm/s and the PAMPA_R3 came to 9.31e-06 cm/s.
